Data published in patent publication US10709710B2, “Composition comprising uric acid for the treatment treated with mechanical thrombectomy” (Hospital Clinic de Barcelona, priority 2017, dated 2020).

Tests used:
[1] = test system: ischemic brain stroke patients treated with mechanical thrombectomy; assay: Treatment with uric acid of ischemic brain stroke patients treated with intravenous thrombolysis and mechanical thrombectomy; type: in vivo, humans
Description: Example 1. Treatment with uric acid of ischemic brain stroke patients treated with intravenous thrombolysis and mechanical thrombectomy.
In total, 45 ischemic brain stroke patients were enrolled in this study and received the combination of thrombolytic treatment (using rt-PA) and mechanical thrombectomy. […] The patients of this study were recruited at eight centres and, in all the cases, the corresponding informed consent was obtained from the patient or its legal representative.
(§1) All patients that were selected for the study received one standard dose ([…]) of rtPA (in the present case, intravenous alteplase) within the 4.5 hours following the brain stroke. During infusion of intravenous alteplase, patients were assigned randomly in a 1:1 proportion to the uric acid group or to the placebo group, so that they received 500 ml of intravenous solution of 1000 mg of uric acid or placebo (physiologic serum comprising 0.1% […] and 5% mannitol), respectively, both contained in glass bottles covered with opaque yellow bags tag in identical manner. Said treatment with uric acid or placebo was applied during 90 minutes.
The mechanical thrombectomy procedure was carried in accordance to the procedure pointed out in the REVASCAT assay (Jovin T G, Chamorro A, Cobo E, de Miguel M A, Molina C A, Rovira A, San Román L, Serena J, Abilleira S, Ribó M, Millán M, Urra X, Cardona P, López-Cancio E, Tomasello A, Castaño C, Blasco J, Aja L, Dorado L, Quesada H, Rubiera M, Hernandez-Pérez M, Goyal M, Demchuk A M, von Kummer R, Gallofré M, Dávalos A; REVASCAT Trial Investigators.. Thrombectomy within 8 hours after symptom onset in ischemic stroke. N Engl J Med. 2015; 372:2296-306) and it was started before the 90 minutes of the infusion of the composition with uric acid or placebo had elapsed.
To determine if the revascularization was successful the conventional technique of digital angiography by subtraction was used. Successful vessel revascularization was considered that with grade 2b (indicating reperfusion of from 50% to 90% of the damaged zone), or grade 3 (complete reperfusion of the damaged zone) in accordance with the modified Thrombolysis in Cerebral Infarction (hereinafter, mTICI) scale of 0 to 3.
In addition, certain parameters (death, incidence of intracranial hemorrhages and incidence of gout attacks) were measured in order to determine the safety of the new treatment (treatment of the present invention).

[2] = test system: patients with ischemic brain stroke not treated with mechanical thrombectomy; assay: Same type of study in ischemic brain stroke patients not treated with mechanical thrombectomy; type: in vivo, humans
Method: as §1
The same type of study was carried out with other subpopulations with ischemic brain stroke (not treated with mechanical thrombectomy, but the rest of the treatment and the procedure was the same).

[3] = test system: occlusion of the middle cerebral artery; settings: adult rat; uric acid 24 hours before the occlusion or 1 hour after the reperfusion; cited from earlier work
[4] = test system: thromboembolism model of focal cerebral ischemia; settings: rat thromboembolism model; synergic with rtPA; cited from earlier work
[5] = test system: patients with acute stroke; settings: URICO-ICTUS phase 2b/3, cited from earlier work
hippocampus cells = settings: culture of hippocampus cells; cited from earlier work
[6] = in words, with mechanical thrombectomy
[7] = with mechanical thrombectomy, uric acid group n = 24
[8] = Patients which consume alcohol, uric acid n = 10
[9] = Patients which have suffered previous brain stroke, uric acid n = 30
[10] = Patients with atrial fibrillation, uric acid n = 35
[11] = Patients with cardioembolism, uric acid n = 86
[12] = Patients with coronary disease, uric acid n = 31
[13] = Patients with diabetes, uric acid n = 55
[14] = Patients with dyslipidaemia, uric acid n = 81
[15] = Smoking patients, uric acid n = 35
[16] = Women patients, uric acid n = 100
[17] = general population not treated with mechanical thrombectomy, uric acid n = 187
[18] = in words, general population without mechanical thrombectomy

O=c1[nH]c(=O)c2[nH]c(=O)[nH]c2[nH]1 [Uric acid, uric acid]
successfulness in the revascularization, uric acid vs placebo ([1]; in words, mTICI grade 2b or 3): no significant differences | complete independence of the patients at 90 days (Barthel index score of 95-100), uric acid vs placebo [1, 6]: statistically significant and surprising improvement | good results at 90 days (mRS score of between 0-2), uric acid vs placebo [1, 6]: statistically significant and surprising improvement | growth of the infarcted zone at 72 hours from the treatment, uric acid vs placebo [1, 6]: statistically significant and surprising improvement | rest of measured parameters, uric acid vs placebo [1, 6]: positive and improvement tendency | safety: death, incidence of intracranial hemorrhages and incidence of gout attacks, uric acid vs placebo [1, 6]: no differences were observed | mTICI Score 0, number of patients ([1]; revascularization by digital subtraction angiography, uric acid 1000 mg i.v. + rtPA + mechanical thrombectomy, n = 24): 3 | mTICI Score 0, share of group (in parentheses) ([1]; revascularization by digital subtraction angiography, uric acid group n = 24): (13) | mTICI Score 1, number of patients ([1]; uric acid group n = 24): 0 | mTICI Score 2a, number of patients ([1]; uric acid group n = 24): 1 | mTICI Score 2a, share of group (in parentheses) ([1]; uric acid group n = 24): (4) | mTICI Score 2b, number of patients ([1]; uric acid group n = 24): 7 | mTICI Score 2b, share of group (in parentheses) ([1]; uric acid group n = 24): (29) | mTICI Score 2b/3 (successful revascularization), number of patients ([1]; uric acid group n = 24): 20 | mTICI Score 2b/3 (successful revascularization), share of group (in parentheses) ([1]; uric acid group n = 24): (83) | mTICI Score 3, number of patients ([1]; uric acid group n = 24): 13 | mTICI Score 3, share of group (in parentheses) ([1]; uric acid group n = 24): (54) | mRS score of between 0-2 at 90 días, % ([1]; with mechanical thrombectomy, uric acid 1000 mg i.v. + rtPA, n = 24): (66.6) % | Barthel index score of 95-100 at 90 days, % [1, 7]: (66.6) % | Growth of the infarcted zone at 72 hours of the treatment, mean [1, 7]: -33.2 mL | NIHSS score 0 at 90 days, % [1, 7]: (37.5) % | Volume of the infarcted zone at 72 hours of the treatment measured by means of magnetic resonance image of the brain, mean [1, 7]: 17.2 | Barthel index score of 95-100 at 90 days, % ([2]; Men patients, uric acid n = 87): (50.6) % | mRS score of between 0-2 at 90 dies, % ([2]; Men patients, uric acid n = 87): (51.7) % | Barthel index score of 95-100 at 90 days, % [2, 8]: (20) % | mRS score of between 0-2 at 90 dies, % [2, 8]: (40) % | Barthel index score of 95-100 at 90 days, % [2, 9]: (40) % | mRS score of between 0-2 at 90 dies, % [2, 9]: (43.3) % | Barthel index score of 95-100 at 90 days, % [2, 10]: (31.4) % | mRS score of between 0-2 at 90 dies, % [2, 10]: (42.9) % | Barthel index score of 95-100 at 90 days, % [2, 11]: (45.3) % | mRS score of between 0-2 at 90 dies, % [2, 11]: (48.8) % | Barthel index score of 95-100 at 90 days, % [2, 12]: (51.6) % | mRS score of between 0-2 at 90 dies, % [2, 12]: (45.2) % | Barthel index score of 95-100 at 90 days, % [2, 13]: (45.8) % | mRS score of between 0-2 at 90 dies, % [2, 13]: (45.5) % | Barthel index score of 95-100 at 90 days, % [2, 14]: (50.6) % | mRS score of between 0-2 at 90 dies, % [2, 14]: (49.4) % | mRS score of between 0-2 at 90 dies, % ([2]; Patients with hypertension (arterial pressure over 160 mmHg), uric acid n = 131): (48.9) % | Barthel index score of 95-100 at 90 days, % ([2]; Patients with hypertension, uric acid n = 131): (45.8) % | mRS score of between 0-2 at 90 dies, % ([2]; Patients with large vessel arteriosclerosis (arterial stenosis +2250%), uric acid n = 19): (31.6) % | Barthel index score of 95-100 at 90 days, % ([2]; Patients with large vessel arteriosclerosis, uric acid n = 19): (21.1) % | Barthel index score of 95-100 at 90 days, % [2, 15]: (42.9) % | mRS score of between 0-2 at 90 dies, % [2, 15]: (50) % | Barthel index score of 95-100 at 90 days, % [2, 16]: (42) % | mRS score of between 0-2 at 90 dies, % [2, 16]: (50) % | Barthel index score of 95-100 at 90 days, % [2, 17]: 45.6% | mRS score of between 0-2 at 90 dies, % [2, 17]: 44.7% | effect in the percentage of patients with Barthel index score 95-100 [2, 18]: only a minimal effect | effect in the percentage of patients with an mRS score of between 0 and 2 at 90 days [2, 18]: did not show a detectable effect | lipid peroxidation [3]: reduces | reactive oxygen species accumulation [3]: suppresses | resulting cerebral infarction [3]: significantly reduces | neuroprotective effect [4]: neuroprotective | safety of uric acid in combination with the standard thrombolytic treatment (alteplase) [5]: safe | proportion of patients with excellent results at 90 days ([5]; combined with alteplase): no change was seen | protection against excitotoxic damage by glutamate (hippocampus cells): protects against excitotoxic damage by glutamate
